Reference: PMC9186373, “Design, synthesis, and biological evaluation of novel carbazole derivatives as potent DNMT1 inhibitors with reasonable PK properties” (Journal of Enzyme Inhibition and Medicinal Chemistry, 2022)
Read-outs that look alike come from different tables or passages of the source.

Experiments:
LSD1 = test: Methylation inhibition assay (AlphaLisa), LSD1; assay type: biochemical; settings: 1 - selected enzyme inhibition/DNMT1 inhibition; 50 µM
Protocol: (§1) All the compounds were first screened using an ELISA EpiQuik DNA methyltransferase (DNMT) activity/inhibitor assay kit (Epigentek). To measure the effects of the compounds on human DNMT1 activity, 200 nM purified DNMT1 was incubated with 50 µM and 100 µM of the different compounds and S-adenosylmethionine in the DNMT assay buffer in the assay plate at 37 °C for 2 h[36]. Next, every sample was incubated with the capture and detection antibody, followed by incubation with developer solution for 10 min at room temperature. The absorbance was measured at 450 nm using a POLARstar Omega microplate reader (BMG). S-Adenosylhomocysteine (AdoHcy) was used as a positive control. Methylation inhibition assays for EZH2, LSD, and G9a were performed in modified Tris, pH 9.0, buffer using AlphaLisa technology. An amount of 10 µL of the reaction system contained a corresponding concentration of SAM (Sigma) (EZH2 50 µM, LSD 50 µM, and G9a 50 µM), which was the Km value in each enzymatic reaction, plus 100 nM biotinylated peptide H3 (1–21) (synthesis by GLChina) and the relevant enzyme concentration (0.03 nM EZH2, 0.03 nM LSD, and 0.03 nM G9a). The proteins were preincubated with various compound concentrations for 15 min at room temperature before the substrate and SAM were added. After 60 min of incubation at room temperature, acceptor and donor AlphaLisa beads were added according to the manufacturer’s recommendations. The signals were read in Alpha mode with an EnSpire multimode plate reader (PerkinElmer). IC50 values were derived by fitting the data for the inhibition percentage to a dose-response curve by non-linear regression in GraphPad Prism 5.0[20].
(§2) In addition to DNMT1, there are many other methyltransferases that can bind with S-adenosyl-L-methionine (SAM) to facilitate transmethylation reactions[24]^,[25]. To investigate the selectivity of these potent compounds for DNMT1, we then evaluated the inhibitory activities against DNMT1 and other important methyltransferases at the concentration of 50 µM, including DNMT3A/3L, DNMT3B/3L, and other SAM-dependent enzymes[1]^,[2]^,[26], such as EZH2[27], LSD1[28], G9a (histone H3 lysine 9 methyltransferase)[29].
(§3) 493 Relative selectivity index
(§4) 494 Relative selectivity index of DNMT1 is calculated by formula: DNMT1-selectivity
(§5) 495 index =1 - selected enzyme inhibition/DNMT1 inhibition. The closer
(§6) 496 that this value is to 1 or even more than 1, the better DNMT1-selectivity the of the
(§7) 498 Table S1. Relative selectivity index of DNMT1
Cpd. […]

[1] = tested on: HCT116 (human colon cancer cells); test: MTT assay, HCT116; assay type: cell-based
Protocol: (§8) The human lung cancer cells (A549) and human colon cancer cells (HCT116) were cultured in an RPMI-1640 medium containing 10% FBS, 100 U/mL streptomycin, and 100 U/mL penicillin at 37 °C in a humidified atmosphere with 5% CO2. All compounds were dissolved in DMSO and stock solutions were stored at −20 °C. Reagents were freshly diluted to the marked concentrations with a culture medium before use. DMSO concentration in experimental conditions never exceeded 0.1% (v/v). All cell lines were provided by the cell laboratory, School of pharmaceutical sciences, Guangzhou Medical University.
(§9) Cell viability was detected using an MTT assay kit. Cells were seeded into 96-well plates at a density of ∼1.0 × 10^4/well. 24 h later, sextuplicate wells were treated with media and new compounds at a fixed concentration (50 µM). After 24, 48, and 72 h, the drug-containing medium was replaced by a 100 µL fresh medium with 5 mg/mL MTT solution. After 4 h of incubation, the medium with MTT was removed, and 100 µL of DMSO was added to each well. The plates were gently agitated until the purple formazan crystals were dissolved, and the OD490 was determined using a […] (Olympus BX53, Japan). The data were calculated and plotted as the percent viability compared to the control.

DNMT3B/3L = test: Methyltransferase enzymatic selectivity profiling, DNMT3B/3L; assay type: biochemical; settings: 50 µM; for Relative selectivity index of DNMT1 vs DNMT 3B/3L: 1 - selected enzyme inhibition/DNMT1 inhibition
Protocol: as §2
(§10) Here, the selectivity of non-nucleoside DNMT1 inhibitors is somewhat predictable because other methyltransferases mentioned above catalyse different substrates and share very low homology with DNMT1, even in their catalytic domain[30–32]. Subsequently, the screened compounds were evaluated in a dose-dependent assay against HCT116 (human colon cancer cell line) and A549 (human lung carcinoma cell line).
as §3, §4, §5, §6, §7
Cpd. […]

[2] = tested on: A549 (human lung cancer cells); test: MTT assay, A549; assay type: cell-based
Protocol: as §8, §9

[3] = tested on: G9a (histone H3 lysine 9 methyltransferase); test: Methylation inhibition assay (AlphaLisa), G9a; assay type: biochemical; settings: 50 µM; for inhibitory activity against G9a: Figure 3; for Relative selectivity index of DNMT1 vs G9a: 1 - selected enzyme inhibition/DNMT1 inhibition
Protocol: as §1, §2, §3, §4, §5, §6, §7
Cpd. […]

human DNMT1 = test: ELISA EpiQuik DNA methyltransferase (DNMT) activity/inhibitor assay; assay type: biochemical; settings: 200 nM purified DNMT1, EpiQuik kit; for Inh% at 50 μM: 50 μM compound; for Inh% at 100 μM: 100 μM compound
Protocol: as §1
DNMT1 inhibition test was performed on 30 candidates to verify their biochemical activities. The EpiQuik DNA methyl-transferase (DNMT) activity/inhibitor assay kit (Epigentek) was used to identify the activity of synthetic compounds.

DNMT3A/3L = test: Methyltransferase enzymatic selectivity profiling, DNMT3A/3L; assay type: biochemical; settings: 1 - selected enzyme inhibition/DNMT1 inhibition; 50 µM
Protocol: as §2, §10, §3, §4, §5, §6, §7
Cpd. […]

DNMT1 = DNMT1 (Homo sapiens, UniProt P26358); test: H3-labelled radioactive methylation assay; assay type: biochemical; settings: H3-labeled radioactive methylation assay; 40 nM DNMT1
Sequence of DNMT1 (P26358 whole entry): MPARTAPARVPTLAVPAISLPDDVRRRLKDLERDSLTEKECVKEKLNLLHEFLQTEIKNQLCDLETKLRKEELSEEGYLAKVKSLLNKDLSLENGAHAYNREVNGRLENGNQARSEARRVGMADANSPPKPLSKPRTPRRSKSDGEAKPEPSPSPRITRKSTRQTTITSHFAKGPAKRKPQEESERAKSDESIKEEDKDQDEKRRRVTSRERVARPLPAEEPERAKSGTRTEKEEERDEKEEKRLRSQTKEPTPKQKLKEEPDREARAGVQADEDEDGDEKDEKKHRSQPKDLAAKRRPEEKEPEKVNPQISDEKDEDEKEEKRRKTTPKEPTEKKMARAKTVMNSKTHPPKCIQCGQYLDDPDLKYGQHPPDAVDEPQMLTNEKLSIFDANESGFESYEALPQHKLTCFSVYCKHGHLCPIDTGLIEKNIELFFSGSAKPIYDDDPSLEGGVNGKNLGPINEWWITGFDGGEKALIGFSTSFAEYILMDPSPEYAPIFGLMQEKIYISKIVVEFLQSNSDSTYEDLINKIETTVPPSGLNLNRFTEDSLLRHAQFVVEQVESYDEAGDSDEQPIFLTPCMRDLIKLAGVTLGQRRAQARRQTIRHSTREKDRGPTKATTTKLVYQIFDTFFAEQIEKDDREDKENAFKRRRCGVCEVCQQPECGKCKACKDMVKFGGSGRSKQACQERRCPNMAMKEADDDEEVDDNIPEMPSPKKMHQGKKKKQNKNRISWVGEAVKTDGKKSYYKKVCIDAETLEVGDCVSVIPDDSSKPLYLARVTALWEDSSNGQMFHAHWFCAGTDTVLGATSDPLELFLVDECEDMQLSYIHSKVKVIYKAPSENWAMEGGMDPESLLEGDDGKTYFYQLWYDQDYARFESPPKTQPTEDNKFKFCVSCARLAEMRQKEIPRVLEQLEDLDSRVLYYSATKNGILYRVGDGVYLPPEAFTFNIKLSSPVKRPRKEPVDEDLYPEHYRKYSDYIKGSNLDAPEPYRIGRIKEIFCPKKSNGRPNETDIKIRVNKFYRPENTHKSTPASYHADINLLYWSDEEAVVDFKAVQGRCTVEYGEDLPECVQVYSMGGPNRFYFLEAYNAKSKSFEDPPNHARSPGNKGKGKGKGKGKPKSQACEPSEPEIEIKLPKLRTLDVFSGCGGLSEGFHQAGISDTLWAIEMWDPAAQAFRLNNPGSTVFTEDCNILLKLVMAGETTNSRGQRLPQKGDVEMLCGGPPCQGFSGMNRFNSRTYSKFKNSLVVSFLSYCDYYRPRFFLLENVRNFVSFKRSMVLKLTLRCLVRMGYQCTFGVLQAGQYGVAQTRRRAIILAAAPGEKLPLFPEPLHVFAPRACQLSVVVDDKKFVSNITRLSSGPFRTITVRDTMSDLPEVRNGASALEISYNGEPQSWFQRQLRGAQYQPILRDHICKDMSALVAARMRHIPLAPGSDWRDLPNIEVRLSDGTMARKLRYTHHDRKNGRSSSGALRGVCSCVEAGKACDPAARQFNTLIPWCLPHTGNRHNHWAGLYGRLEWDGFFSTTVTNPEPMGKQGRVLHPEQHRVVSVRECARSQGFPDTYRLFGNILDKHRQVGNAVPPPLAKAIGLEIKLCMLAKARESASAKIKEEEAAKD
Protocol: The DNMT1 radioactive methylation inhibition assays were performed in 30 µL reactions containing 0.1 µM adenosyl-L-methionine S-[methyl-^3H] (^3H-SAM, ^15 Ci/mmol, PerkinElmer), 0.25 µg/mL poly (dI-dC)·poly (dI-dC) (Sigma), 40 nM DNMT1 in 50 mM Tris-HCl, pH 8.0, 1 mM DTT, 5% glycerol, and 100 µg/mL BSA. The proteins were preincubated with a range of compound concentrations for 15 min at room temperature before adding the substrate and [^3H] SAM. After 60 min of incubation at 37 °C, the reaction systems were transferred to a MultiScreen HTS filter plate (Millipore), and the plate was washed 3 times with doubly distilled H2O via a vacuum. The radioactivity was determined by liquid scintillation counting (MicroBeta, PerkinElmer). IC50 values were derived by fitting the data for the inhibition percentage to a dose-response curve by non-linear regression in GraphPad Prism 5.0.
To quantitatively analyse DNMT1 inhibitory effect, the H^3-labelled radioactive methylation assay was conducted to measure the methyltransferase activity of DNMT1 at a range of concentrations for these compounds.

EZH2 = test: Methylation inhibition assay (AlphaLisa), EZH2; assay type: biochemical; settings: 50 µM; for inhibitory activity against EZH2: Figure 3; for Relative selectivity index of DNMT1 vs EZH2: 1 - selected enzyme inhibition/DNMT1 inhibition
Protocol: as §1, §2, §3, §4, §5, §6, §7
Cpd. […]

PK study in SD rats = assay type: in vivo; settings: rat, plasma, SD male rats; for AUC(0-t) / Tmax / half-life: mean ± SD (n = 3); for bioavailability: p.o. 10 mg/kg vs i.v. 2 mg/kg, F = (AUC p.o. × Dose i.v.)/(AUC i.v. × Dose p.o.) × 100%
Protocol: In vivo pharmacokinetic properties of WK-22, WK-23, WK-27, and DC_517 were performed by Medicilon Company, Shanghai, China. SPF-grade SD male rats (8 groups, n = 3 rats per group) with a body weight of 230–260 g were purchased from Shanghai SIPPR-BK LAB Animal Ltd., Shanghai, China, and used for the pharmacokinetic analysis of the tested compounds. All animals were deprived of food overnight after the cannulation surgery. Subsequently, the tested compounds WK-23 and DC_517 were dissolved/suspended in 5% DMSO, 10% Solutol, and 85% water, and the tested compounds WK-22 and WK-27 were dissolved/suspended in 5% DMSO, 40% PEG400, and 55% saline for intravenous administration (i.v.) and oral administration (p.o.), respectively. A final dosage of 2.0 and 10.0 mg/kg rat of the formulated compounds was administered for i.v. and p.o. purposes, respectively, and the blood samples were taken at various time points during a 24 h period. At different time points, blood samples were collected from the femoral vein. The plasma samples were obtained after centrifugation (6800 g, 6 min, 2–8 °C) and stored at −80 °C until the assay. The AUC (area under concentration-time curve) was calculated through the trapezoidal rule with extrapolation to time infinity. The concentration of the compounds in the blood was analysed by LC-MS/MS (Shimadzu liquid chromatographic system and SCIEX Triple Quad 5500+ mass spectrometer, Applied Biosystems, Ontario, Canada). The Tmax, T1/2, and Cmax value was obtained through visual inspection of the plasma concentration-time curve. The Vss value was generated from DAS 3.2.8 software. The F value of WK-23 was calculated with the formula: F = (AUC p.o. × Dose i.v.)/(AUC i.v. × Dose p.o.) × 100%.

Row | Relative selectivity index of DNMT1 vs DNMT 3B/3L (DNMT3B/3L) | inhibitory activity against G9a [3] | Relative selectivity index of DNMT1 vs G9a [3] | Inh% at 50 μM (human DNMT1) [%] | Inh% at 100 μM (human DNMT1) [%] | melting point [°C] | Relative selectivity index of DNMT1 vs DNMT 3A/3L (DNMT3A/3L) | IC50 (DNMT1) [µM] | SMILES | Relative selectivity index of DNMT1 vs LSD1 (LSD1) | inhibitory activity against EZH2 (EZH2) | Relative selectivity index of DNMT1 vs EZH2 (EZH2) | also measured
1 | 1.09 | hardly any inhibitory activities | 0.93 | 99 | 94 | 130 to 132 | 0.67 | 17 | OC(CNCCc1c[nH]c2ccccc12)Cn1c2ccc(F)cc2c2cc(F)ccc21 (centres unmarked) [WK-12, 1-((2-(1H-indol-3-yl)ethyl)amino)-3-(3,6-difluoro-9H-carbazol-9-yl)propan-2-ol] | 0.23 | hardly any inhibitory activities | 0.91 | inhibition at 50 µM ([1]; HCT-116, 24 h, read-out: Inh % at 50 μM, HCT116, 24 h): 77.7%; inhibition at 50 µM ([1]; HCT-116, 48 h, read-out: Inh % at 50 μM, HCT116, 48 h): 88.8%; inhibition at 50 µM ([1]; HCT-116, 72 h, read-out: Inh % at 50 μM, HCT116, 72 h): 96.7%; inhibitory activity against DNMT3B/3L (DNMT3B/3L; Figure 3): hardly any inhibitory activities; inhibition at 50 µM ([2]; 24 h, read-out: Inh % at 50 μM, A549, 24 h): 59.9%; inhibition at 50 µM ([2]; 48 h, read-out: Inh % at 50 μM, A549, 48 h): 80.1%; inhibition at 50 µM ([2]; 72 h, read-out: Inh % at 50 μM, A549, 72 h): 84.7%
2 | 0.03 | nearly no inhibitory activities | 0.97 | 100 | 100 | 150 to 152 | 0.03 | – | OC[C@H]1CN(CC(O)COC(Cn2c3ccccc3c3cc(F)ccc32)Cn2c3ccc(F)cc3c3cc(F)ccc32)CCN1 (stereo partly drawn) [WK-27, 1-((1-(3,6-Difluoro-9H-carbazol-9-yl)-3-(3-fluoro-9H-carbazol-9-yl)propan-2-yl)oxy)-3-((R)-3-(hydroxymethyl)piperazin-1-yl)propan-2-ol] | 0.05 | nearly no inhibitory activities | 0.9 | AUC(0-t) (PK study in SD rats; iv, i.v. (2 mg/kg)): 427 ± 60 ng·h/mL; Tmax (PK study in SD rats; iv, i.v. (2 mg/kg)): 0.1 h; half-life (PK study in SD rats; iv, i.v. (2 mg/kg)): 11.5 ± 1.2 h; bioavailability (PK study in SD rats; oral): 1.8%; bioavailability (PK study in SD rats; po): 1.8 ± 1.9%; AUC(0-t) (PK study in SD rats; po, p.o. (10 mg/kg)): 28.5 ± 40 ng·h/mL; Tmax (PK study in SD rats; po, p.o. (10 mg/kg)): 2.7 ± 1.2 h; half-life (PK study in SD rats; po, p.o. (10 mg/kg)): 3.9 ± 2.5 h
3 | – | – | – | 70 | 87 | 130 to 132 | – | 10 | CC(O)CNCC(O)Cn1c2ccc(F)cc2c2cc(F)ccc21 (centres unmarked) [WK-18, 1-(3,6-Difluoro-9H-carbazol-9-yl)-3-((2-hydroxypropyl)amino)propan-2-ol] | – | – | – | –
4 | – | – | – | 71 | 79 | 140 to 142 | – | 27 | Oc1ccc(CCNCC(O)Cn2c3ccccc3c3cc(F)ccc32)cc1 (centres unmarked) [WK-3, 4-(2-((3-(3-Fluoro-9H-carbazol-9-yl)-2-hydroxypropyl)amino)ethyl)phenol] | – | – | – | –
5 | 1.44 | – | 0.99 | 100 | 100 | 183 to 185 | 0.94 | – | CC(C)(C)NCC(O)COC(Cn1c2ccccc2c2cc(F)ccc21)Cn1c2ccccc2c2cc(F)ccc21 (centres unmarked) [WK-25, 1-((1,3-Bis(3-fluoro-9H-carbazol-9-yl)propan-2-yl)oxy)-3-(tert-butylamino)propan-2-ol] | 0.02 | – | 0.89 | –
6 | – | – | – | 79 | 84 | 114 to 116 | – | 6 | OC(CNCCc1ccc(F)cc1)Cn1c2ccc(F)cc2c2cc(F)ccc21 (centres unmarked) [WK-14, 1-(3,6-Difluoro-9H-carbazol-9-yl)-3-((4-fluorophenethyl)amino)propan-2-ol] | – | – | – | –
